Measured values as given in patent US5270334A, “4-methoxy-5-methyl-pyran-3-ol natural products and derivatives thereof” (E. R. Squibb & Sons, Inc., priority 1992, dated 1993).

What was measured:
[1] = target: T1, lanosterol demethylase (Candida albicans, UniProt P10613); assay: inhibition of lanosterol demethylase, spectrophotometric carbon monoxide binding assay; settings: Candida albicans SGY677; read-out: concentration which gives 50% inhibition of carbon monoxide binding
T1 construct: endogenous in cells; host or cells: Candida albicans SGY677
T1 sequence (P10613 whole entry): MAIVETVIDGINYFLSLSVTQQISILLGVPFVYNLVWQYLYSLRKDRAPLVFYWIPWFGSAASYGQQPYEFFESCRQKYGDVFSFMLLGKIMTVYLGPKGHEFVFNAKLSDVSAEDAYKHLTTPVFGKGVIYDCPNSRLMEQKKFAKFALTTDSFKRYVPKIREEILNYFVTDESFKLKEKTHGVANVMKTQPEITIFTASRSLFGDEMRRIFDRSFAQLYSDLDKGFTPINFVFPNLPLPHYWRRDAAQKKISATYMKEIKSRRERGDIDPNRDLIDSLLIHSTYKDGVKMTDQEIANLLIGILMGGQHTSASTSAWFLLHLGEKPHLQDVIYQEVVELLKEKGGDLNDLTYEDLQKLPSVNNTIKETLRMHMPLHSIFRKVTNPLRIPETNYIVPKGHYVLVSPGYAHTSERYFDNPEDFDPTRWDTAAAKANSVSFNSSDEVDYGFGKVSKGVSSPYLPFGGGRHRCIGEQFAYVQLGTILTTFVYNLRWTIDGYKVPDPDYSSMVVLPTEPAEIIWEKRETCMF
Description: (§1) The inhibition of lanosterol demethylase was determined by two methods: the spectrophotometric carbon monoxide binding assay of Omura and Sato (J. Biol. Chem. 239:2370-2378, 1964) and by a radiolabeled metabolic assay.
Cells of Candida albicans, SGY677, were grown overnight without shaking at 30° C. in a medium consisting of yeast extract 1%, peptone 2%, glucose 2% and distilled water. Cells were harvested by centrifugation and resuspended in 0.65M mannitol to an optical density at 600 nm of 2.5. At this density 1 ml of cells was equal to 6.7 mg constant dry weight (105° C. for 18 hours).
Scopularin and its alcohol derivative of Example 4 were added to the enzyme and the inhibition of carbon monoxide binding determined over a range of inhibitor concentrations.

[2] = tested on: cytochrome P450 enzymes, such as lanosterol demethylase; assay: inhibition of cytochrome P450 enzymes (general statement); type: biochemical; settings: in words
[3] = target: T2, lanosterol demethylase of Candida albicans (Candida albicans, UniProt P10613); assay: inhibition of lanosterol demethylase, radiolabeled metabolic assay (14C-acetate, lanosterol accumulation); type: cell-based; settings: Candida albicans SC5314, 14C-acetate, 30°
T2 construct: 14C-acetate sterol labelling, TLC
T2 sequence (P10613 whole entry): as above
Description: as §1
The ability of scopularin and its alcohol to inhibit the lanosterol demethylase of Candida albicans can also be visualized by a metabolic assay. Candida albicans, SC5314, was grown overnight at 30° with shaking in the same medium as that used above. Cells were harvested by centrifugation and resuspended in water to give an optical density of 0.3 at 660 nm. 750 μl of this cell suspension, 300 μl of a medium containing 0.35 g Difco yeast nitrogen base without amino acids, 1 g glucose and distilled water to 10 ml, 100 μl of test material and distilled water were combined to give a final volume of 1.425 ml. This was incubated for 15 minutes at 30° C. with shaking, then 3 μCi ^14 C-acetate was added and continued to incubate for 1 hour. Cells were harvested by centrifugation and extracted with 2×0.5 ml methanol; centrifuged, decanted supernate and repeated the extraction with […] methanol-benzene (1:1). Centrifuged, decanted; combined supernates, dried and resuspended in 100 μl chloroform-methanol (1:1). The aliquots were spotted onto silica gel 60 (Merck) plates and developed chromatographically in a solvent containing dichloromethane-acetone (60:1). […]

[4] = tested on: yeasts and fungi; assay: activity against a variety of yeasts and fungi (general statement); type: cell-based; settings: in words

Compound	IC50 [1] [µM]	inhibition of cytochrome P450 enzymes, such as lanosterol demethylase [2]	concentration causing accumulation of lanosterol, consistent with inhibition of lanosterol demethylase [3]	activity against a variety of yeasts and fungi [4]
CCC/C=C/C=C/C=C(\C)[C@H]1OC[C@@H](C)[C@@H](OC)[C@@H]1O (relative stereo) [Example 4]	14	inhibitor	1.4×10^-6	–
C/C=C/C=C/C=C(\C)[C@@H]1OC[C@H](C)[C@H](OC)[C@H]1OC(=O)CN[C@@H]1O[C@H](CO)[C@@H](O)[C@H](O)[C@H]1O [Ic]	–	inhibit	–	has activity
